Reference: patent publication US10077243B2, “Compounds for treating disorders mediated by metabotropic glutamate receptor 5, and methods of use thereof” (Sunovion Pharmaceuticals Inc., priority 2009, dated 2018)

Biological target: T1, human mGluR5 (Homo sapiens, UniProt P41594)
T1 construct: expressed in transfected cells; host or cells: HEK293 cells stably expressing rat GLAST (EAAT1), stably transfected with pcDNAzeo3.1 carrying synthetic human mGluR5 DNA; zeocin-selected single clones
Test: In vitro cell-based FLIPR calcium assay for positive modulation of the activation of mGluR5 by glutamate (PAM EC50)
Details: HEK293/GLAST cells expressing recombinant human mGluR5; FLIPR calcium signal; glutamate added at its EC20; read-out: mGluR5 PAM EC50
Source text: The DNA sequences encoding the structural regions for rat mGluR5 [Abe T, Sugihara H, Nawa H, Shigemoto R, Mizuno N, Nakanishi S (1992) “Molecular characterization of a novel metabotropic glutamate receptor mGluR5 coupled to inositol phosphate/Ca^2+ signal transduction” Journal of Biological Chemistry vol. 267, no. 19, pp. 13361-8] and human mGluR5 [Daggett L P, Sacaan A I, Akong M, Rao S P, Hess S D, Liaw C, Urrutia A, Jachec C, Ellis S B, Dreessen J, Knöpfel T, Landwehrmeyer G B, Testa C M, Young A B, Varney M, Johnson E C, Veliçelebi (1995) “Molecular and functional characterization of recombinant human metabotropic glutamate receptor subtype 5” Neuropharmacology vol. 34, no. […] 53, no. 3, pp. 355-369] was obtained from Dr. Michael Robinson of the Children's Hospital of Philadelphia under a Material Transfer Agreement. The pcDNAzeo3.1 vector DNA, carrying either rat mGluR5 or human mGluR5, was used to transfect a sample of the HEK293/GLAST cells, and single clones that express mGluR5 were isolated from the transfected cells using zeocin selection. Expression of mGluR5 was assessed by measurement of the transient fluorescence signal elicited from HEK293/GLAST/mGluR5 cells by glutamate following the loading of the cells with a calcium-sensitive dye using a FLIPR Tetra (Fluorometric Imaging Plate Reader) (Molecular Devices, Sunnyvale, Calif.) [O'Brien J A, Lemaire W, Chen T B, Chang R S, Jacobson M A, Ha S N, Lindsley C W, Schaffhauser H J, Sur C, Pettibone D J, Conn P J, Williams D L Jr. […] 64, no. 3, pp. 731-740; Assay Guidance Manual Version 5.0, 2008, Eli Lilly and Company and NIH Chemical Genomics Center; available online HEK293/GLAST/mGluR5 cells were grown in Dulbecco's Modified Eagle Medium (DMEM) supplemented with 10% dialyzed fetal bovine serum, 20 millimolar (mM) N-2-hydroxyethylpiperazine-N′-2-ethanesulfonic acid (HEPES), penicillin, streptomycin, 1% GlutaMax™ (Invitrogen) and 50 μg/ml zeocin. Cells were grown in the media to 70-80% confluency at 37° C. under 5% CO2, 95% humidity in poly-D-lysine coated coated flasks. Cells for assays were plated into 96-well sterile standard microtiter plates (pre-coated with poly-D-lysine) at a density of 50,000 cells per well in 0.2 milliliters of media. Plated cells were allowed to settle and adhere for 30 minutes at ambient conditions, and then were incubated overnight at 37° C. under 5% CO2, 95% humidity. Several such 96-well plates were typically prepared. On the day of the assays, the components of the FLIPR calcium 4 assay kit (Molecular Devices) were dissolved according to the instructions of the dye kit's manufacturer in assay buffer (Hank's balanced salt solution (HBSS) (Gibco) supplemented with 20 mM HEPES). After removal of the growth media from the first plate, cells were loaded with calcium dye by addition of calcium dye solution (50 microliters per well) and incubation at 25° C. for 45 to 60 minutes. The first plate was placed into the FLIPR Tetra, and a dilution series of glutamate solutions in assay buffer were added to wells on the plate, followed by acquisition of fluorescence data for several minutes. The fluorescence data (maximal signal as a 4-parameter sigmoidal function of log [glutamate]) were processed by non-linear regression methods using the software package GraphPad Prism 5.01 (GraphPad Software Inc.), to yield a glutamate concentration-response curve (CRC). […] These values were, respectively, the concentrations of glutamate that elicit 20%, 50%, and 80% of the maximal FLIPR signal (observed at saturating [glutamate]). The method for measuring the concentration response of a potentiator, or positive allosteric modulator (PAM), is described here as an example. For that purpose, subsequent assays were typically performed using assay buffer containing a glutamate concentration equal to that day's EC20. […] Addition to certain wells of the same buffer containing 0.3% DMSO, but without any test compound, provided a negative control.

T1 sequence (P41594 21-1212): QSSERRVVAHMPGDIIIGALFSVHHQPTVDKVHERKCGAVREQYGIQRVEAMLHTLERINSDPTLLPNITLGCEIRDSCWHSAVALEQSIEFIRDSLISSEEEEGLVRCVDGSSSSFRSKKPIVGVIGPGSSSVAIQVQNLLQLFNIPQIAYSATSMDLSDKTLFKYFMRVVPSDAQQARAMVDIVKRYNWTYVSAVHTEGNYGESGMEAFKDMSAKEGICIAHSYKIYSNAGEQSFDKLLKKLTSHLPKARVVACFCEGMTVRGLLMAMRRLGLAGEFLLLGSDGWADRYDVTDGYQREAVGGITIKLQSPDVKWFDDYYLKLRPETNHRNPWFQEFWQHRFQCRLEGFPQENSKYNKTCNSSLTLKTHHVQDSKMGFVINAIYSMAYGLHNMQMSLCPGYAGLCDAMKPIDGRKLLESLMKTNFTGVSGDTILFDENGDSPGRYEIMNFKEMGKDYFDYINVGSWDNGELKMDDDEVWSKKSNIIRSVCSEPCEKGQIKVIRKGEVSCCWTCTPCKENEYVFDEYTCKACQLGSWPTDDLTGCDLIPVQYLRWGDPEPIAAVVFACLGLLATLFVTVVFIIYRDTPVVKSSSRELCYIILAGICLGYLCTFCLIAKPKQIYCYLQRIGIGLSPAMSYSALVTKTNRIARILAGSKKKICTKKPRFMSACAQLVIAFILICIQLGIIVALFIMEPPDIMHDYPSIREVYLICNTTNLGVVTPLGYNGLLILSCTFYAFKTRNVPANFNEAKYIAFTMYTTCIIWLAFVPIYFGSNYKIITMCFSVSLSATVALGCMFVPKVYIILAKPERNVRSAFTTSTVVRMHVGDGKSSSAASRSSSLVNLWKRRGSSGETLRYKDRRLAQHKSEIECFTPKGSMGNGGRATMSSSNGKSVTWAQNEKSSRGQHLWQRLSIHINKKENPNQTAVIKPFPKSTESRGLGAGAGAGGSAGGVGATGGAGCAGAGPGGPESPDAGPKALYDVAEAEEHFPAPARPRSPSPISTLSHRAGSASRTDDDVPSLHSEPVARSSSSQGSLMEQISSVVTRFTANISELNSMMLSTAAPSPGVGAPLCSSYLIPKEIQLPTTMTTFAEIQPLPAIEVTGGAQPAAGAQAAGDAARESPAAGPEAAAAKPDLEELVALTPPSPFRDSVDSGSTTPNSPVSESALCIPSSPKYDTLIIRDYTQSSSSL

| Structure (SMILES) | EC50 |
| --- | --- |
| N#CC1CCc2nc3cc(C#Cc4ccccn4)ccc3c(=O)n2CC1 (stereo not drawn) [Example 6.39, 12-oxo-3-(pyridin-2-ylethynyl)-6,7,8,9,10,12-hexahydroazepino[2,1-b]quinazoline-8-carbonitrile] | 100 to 300 nM |
| CC1CCc2nc3cc(/C=C/c4ccccn4)ccc3c(=O)n2CC1 (stereo not drawn) [Example 20.3, (E)-8-methyl-3-(2-(pyridin-2-yl)vinyl)-7,8,9,10-tetrahydroazepino[2,1-b]quinazolin-12(6H)-one] | 100 to 300 nM |
| Cc1scnc1C#Cc1ccc2c(=O)n3c(nc2c1)CCC1(CC3)OCCO1 [Example 7.63] | 300 to 1000 nM |
| CC(C#N)N1CCc2nc3cc(C#Cc4ccccn4)ccc3c(=O)n2CC1 (stereo not drawn) [Example 8.24, 2-(11-oxo-8-(pyridin-2-ylethynyl)-1,2,4,5-tetrahydro-[1,4]diazepino[7,1-b]quinazolin-3(11H)-yl)propanenitrile] | 300 to 1000 nM |
| O=c1[nH]cnc2cc(C#Cc3cccc(F)c3)ccc12 [Example 1.2, 7-((3-fluorophenyl)ethynyl)quinazolin-4(3H)-one] | 300 to 1000 nM |
| N#CCN1CCc2nc3cc(C#Cc4ccccn4)ccn3c(=O)c2C1 [Example 15.6, 2-(11-oxo-7-(pyridin-2-ylethynyl)-3,4-dihydro-1H-dipyrido[1,2-a:4′,3′-d]pyrimidin-2(11H)-yl)acetonitrile] | 300 to 1000 nM |
| CNC(=O)CN1CCc2nc3cc(C#Cc4cccc(F)c4)ccc3c(=O)n2CC1 [Example 8.15, 2-(8-((3-fluorophenyl)ethynyl)-11-oxo-1,2,4,5-tetrahydro-[1,4]diazepino[7,1-b]quinazolin-3(11H)-yl)-N-methylacetamide] | 100 to 300 nM |
| CN(C)Cc1nc2cc(C#Cc3cccc(F)c3)ccc2c(=O)n1C [Example 2.7, 2-((dimethylamino)methyl)-7-((3-fluorophenyl)ethynyl)-3-methylquinazolin-4(3H)-one] | 30 to 100 nM |
| O=c1c2ccc(C#Cc3ccnc(F)c3)cc2nc2n1CCC1(CC2)OCCO1 [Example 7.17] | 30 to 100 nM |
| O=c1c2ccc(C#Cc3cccnc3F)cc2nc2n1CCC1(CC2)OCCO1 [Example 7.14] | 100 to 300 nM |
| O=c1c2ccc(C#Cc3ccc(F)c(F)c3)cc2nc2n1CCC1(CC2)OCCO1 [Example 7.5] | 100 to 300 nM |
| O=c1c2c(nc3cc(C#Cc4ccccn4)ccn13)CCCC2 [Example 15.1, 7-(pyridin-2-ylethynyl)-3,4-dihydro-1H-pyrido[2,1-b]quinazolin-11(2H)-one] | 30 to 100 nM |
| CCC(C)N1CCn2c(nc3cc(C#Cc4cccc(F)c4)ccc3c2=O)C1 (stereo not drawn) [Example 5.6, 2-(sec-butyl)-9-((3-fluorophenyl)ethynyl)-3,4-dihydro-1H-pyrazino[2,1-b]quinazolin-6(2H)-one] | 100 to 300 nM |
| CC12CCCN1Cc1nc3cc(C#Cc4ccccn4)ccc3c(=O)n1C2 (stereo not drawn) [Example 4.49, 13a-methyl-8-(pyridin-2-ylethynyl)-2,3,13,13a-tetrahydro-1H-pyrrolo[1′,2′:4,5]pyrazino[2,1-b]quinazolin-11 (5H)-one] | 30 to 100 nM |
| O=c1c2ccc(C#Cc3ccc(F)cc3)cc2ncn1CC1CCCO1 (stereo not drawn) [Example 1.13, 7-((4-fluorophenyl)ethynyl)-3-((tetrahydrofuran-2-yl)methyl)quinazolin-4(3H)-one] | 30 to 100 nM |
| CC1(C)CCc2c(nc3cc(C#Cc4ccccn4)ccn3c2=O)C1 [Example 15.3, 3,3-dimethyl-7-(pyridin-2-ylethynyl)-3,4-dihydro-1H-pyrido[2,1-b]quinazolin-11(2H)-one] | < 10 nM |
| Cc1cnc(NC(=O)c2ccn3c(=O)c4c(nc3c2)CCCCC4)s1 [Example 28.3, N-(5-methylthiazol-2-yl)-11-oxo-6,7,8,9,10,11-hexahydrocyclohepta[d]pyrido[1,2-a]pyrimidine-3-carboxamide] | 30 to 100 nM |
| O=c1c2ccc(C#Cc3cccnc3)cc2nc2n1CCC1(CC2)OCCO1 [Example 7.11] | 300 to 1000 nM |
| O=c1c2ccc(C#Cc3ccccn3)cc2nc2n1C1CCN(CC1)C2 [Example 8.26] | 100 to 300 nM |

Results, then the molecule that gave them:

| EC50 | Structure (SMILES) |
| --- | --- |
| 10 to 30 nM | CCC1CCCc2nc3cc(C#Cc4ccccn4)ccc3c(=O)n21 (stereo not drawn) [Example 4.19, 9-ethyl-3-(pyridin-2-ylethynyl)-8,9-dihydro-6H-pyrido[2,1-b]quinazolin-11(7H)-one] |
| 10 to 30 nM | O=c1c2ccc(C#Cc3ccccn3)cc2nc2n1CC(F)(F)CC2 [Example 4.42, 8,8-difluoro-3-(pyridin-2-ylethynyl)-8,9-dihydro-6H-pyrido[2,1-b]quinazolin-11(7H)-one] |
| 10 to 30 nM | O=c1c2ccc(C#Cc3cccc(F)c3)cc2ncn1C1CCCC1 [Example 1.11, 3-cyclopentyl-7-((3-fluorophenyl)ethynyl)quinazolin-4(3H)-one] |
| < 10 nM | O=c1c2c(nc3cc(C#Cc4ccccc4)ccn13)CCCCC2 [Example 16.2, 3-(phenylethynyl)-7,8,9,10-tetrahydrocyclohepta[d]pyrido[1,2-a]pyrimidin-11(6H)-one] |
| 30 to 100 nM | N#CCN1CCc2nc3cc(C#Cc4ccccn4)ccc3c(=O)n2CC1 [Example 8.23, 2-(11-oxo-8-(pyridin-2-ylethynyl)-1,2,4,5-tetrahydro-[1,4]diazepino[7,1-b]quinazolin-3(11H)-yl)acetonitrile] |
| < 10 nM | COC(C)c1nc2cc(C#Cc3cccc(F)c3)ccc2c(=O)n1C (stereo not drawn) [Example 2.11, 7-((3-fluorophenyl)ethynyl)-2-(1-methoxyethyl)-3-methylquinazolin-4(3H)-one] |
| 10 to 30 nM | CC1CCCc2nc3cc(C#Cc4cccc(F)c4)ccc3c(=O)n21 (stereo not drawn) [Example 4.17, 3-((3-fluorophenyl)ethynyl)-9-methyl-8,9-dihydro-6H-pyrido[2,1-b]quinazolin-11(7H)-one] |
| 10 to 30 nM | O=c1c2ccc(C#Cc3ccccn3)cc2nc2n1CCC1CC21 (stereo not drawn) [Example 4.43, 8-(pyridin-2-ylethynyl)-1,2,3,10b-tetrahydrocyclopropa[3,4]pyrido[2,1-b]quinazolin-5(1aH)-one] |
| < 10 nM | CC1CCc2nc3cc(C#Cc4ccccn4)ccc3c(=O)n2CC1 (stereo not drawn) [Example 6.9, 8-methyl-3-(pyridin-2-ylethynyl)-7,8,9,10-tetrahydroazepino[2,1-b]quinazolin-12(6H)-one] |
| < 10 nM | O=c1c2ccc(C#Cc3ccccn3)cc2nc2n1CCCCC2 [Example 6.5, 3-(pyridin-2-ylethynyl)-7,8,9,10-tetrahydroazepino[2,1-b]quinazolin-12(6H)-one] |
| 10 to 30 nM | CC1CCc2nc3cc(C#Cc4ccccn4)ccc3c(=O)n2C1 (stereo not drawn) [Example 4.12, 8-methyl-3-(pyridin-2-ylethynyl)-8,9-dihydro-6H-pyrido[2,1-b]quinazolin-11(7H)-one] |
| < 10 nM | CC1(C)CCCn2c(nc3cc(C#Cc4ccccn4)ccc3c2=O)C1 [Example 6.37, 7,7-dimethyl-3-(pyridin-2-ylethynyl)-7,8,9,10-tetrahydroazepino[2,1-b]quinazolin-12(6H)-one] |
| 10 to 30 nM | O=c1c2ccc(C#Cc3cccc(F)c3)cc2nc2n1CCN(Cc1ccccc1)CC2 [Example 8.9, 3-benzyl-8-((3-fluorophenyl)ethynyl)-2,3,4,5-tetrahydro-[1,4]diazepino[7,1-b]quinazolin-11(1H)-one] |
| 10 to 30 nM | CC1(C)CCn2c(nc3cc(/C=C/c4ccccn4)ccc3c2=O)C1 [Example 20.7] |
